row,melting point,Compound
1,205 °C,O=[N+]([O-])c1cccc(-c2nnc3n2NC(c2ccccc2)S3)c1 (stereo not given)
2,79 °C,O=S(=O)(Cl)c1ccc(Br)cc1Cl
3,131 to 133 °C,CC(CC1CC(=O)c2c3c(c4ccccc4c2O1)O[C@@H]1CC(=O)O[C@H]31)O[Si](C)(C)C(C)(C)C (stereo not given in full)
4,159 to 160 °C,CC1(c2ccccc2)CC(C(=NOCC2CO2)c2cc3ccccc3o2)C1 (stereo not given)
5,125 °C,CC(C)(Sc1cc(C(C)(C)C)c(O)c(C(C)(C)C)c1)Sc1cc(C(C)(C)C)c(O)c(C(C)(C)C)c1
6,133 °C,ON=C(c1ccccc1)c1ccc(Cl)cc1
7,133 to 136 °C,CCSc1nnc(N)s1
8,129 °C,COc1ccc(C=CC(=O)C=Cc2ccc(OC)cc2)cc1
9,212 to 213 °C,Cc1nc(/C(C#N)=C\c2ccco2)sc1/N=N/c1ccccc1[N+](=O)[O-]
10,121 to 126 °C,O=C(O)c1ccc2c(c1)OCCOCCOCCOCCOCCO2
11,53 °C,O=S(=O)(Cl)c1c(Cl)cccc1Cl
12,45.5 °C,N#CCCCOc1ccccc1
13,180 to 182 °C,O=C1CCC(c2ccccc2)=NN1c1n[nH]c(=S)n1-c1ccccc1
14,31 to 33 °C,Clc1ccc(OCCCI)cc1
15,42 to 44 °C,CCC(=O)N1C(=O)OC[C@@H]1Cc1ccccc1
16,177 to 181 °C,CC(C)(C)c1cc(C(=O)NN)[nH]n1
17,122 °C,Cc1cccc(C)c1NC(=O)c1cncc(Cl)n1
18,120 to 124 °C,CC1(C)Nc2cccc3c(N=Nc4ccc(N=Nc5ccccc5)c5ccccc45)ccc(c23)N1
19,6 °C,Oc1c(Cl)cccc1-c1ccccc1
20,66 to 70 °C,CN1C(=O)CN(C(=O)OC(C)(C)C)[C@@H]1C(C)(C)C
21,84 to 90 °C,CC(=O)c1ccc(N2CCCCC2)cc1
22,259 to 260 °C,COc1cc(C=Nn2c(C)cc(C)c(C#N)c2=O)ccc1O
23,124 °C,O=[N+]([O-])c1c(Cl)cccc1-c1c[nH]cc1Cl

row,melting point,Compound
1,206 to 208 °C,O=C(O)c1cc2cc(Cl)cc(Br)c2oc1=O
2,119 °C,O=C(Oc1cccc2cccnc12)c1ccccc1
3,140 °C,ClCc1c2ccccc2cc2ccccc12
4,147 °C,O=Cc1cc(F)c(O)cc1F
5,-70 °C,CCCC(C)c1ccccc1 (stereo not given)
6,104 °C,O=C(O)c1ccccc1-n1cccc1
7,223 to 225 °C,O=C1Nc2ccccc2C=NC2CCCCC2N=Cc2ccccc2NC1=O (stereo not given)
8,214 °C,CC(=O)N=c1sc(S(N)(=O)=O)nn1C
9,101 °C,OC1OCCOC1O (stereo not given)
10,267 °C,NS(=O)(=O)c1cc2c(cc1Cl)CN(C1CCCCC1)C2=O
11,67.5 °C,Clc1cc(Cl)c2ccccc2n1
12,-78.8 °C,CCCCCOC(=O)CCCC
13,109 to 110 °C,Cc1noc(-c2ccccc2)c1CO
14,123 °C,O=[N+]([O-])c1cccc(C=NNc2ccccc2)c1
15,189 °C,O=C(O)c1ccc(OCc2ccccc2)cc1
16,99.5 °C,Brc1cc(Br)c(Br)c(Br)c1
17,157 to 158 °C,O=C(O)c1cccc(-c2ccco2)c1
18,100 °C,CC(C)NCC(O)c1cc(O)cc(O)c1 (stereo not given)
19,77 °C,O=C1CC(c2ccccc2)Oc2ccccc21 (stereo not given)
20,95 to 98 °C,O=[N+]([O-])c1ccc2c(c1)OCCOCCOCCOCCO2
21,0.5 °C,CCCCCCCCSCCCCCCCC
22,102 °C,O=C(C(=O)c1cccc2ccccc12)c1ccccc1
23,85 to 86 °C,c1cnc2c(c1)OCCN2

row,Compound,melting point
1,CC(C)c1ccc(NC(=O)N(C)C)cc1,158 °C
2,Cc1nn(-c2cc(NS(C)(=O)=O)c(Cl)cc2Cl)c(=O)n1C(F)F,122 °C
3,CCC(CO)NC(=O)C1C=C2c3cccc4[nH]cc(c34)CC2N(C)C1 (stereo not given),172 °C
4,CC1=CC(=O)c2c(O)cccc2C1=O,78.5 °C

# Reference: a melting point compilation (Tetko et al.)
